According to the supplement of paper PMC10307832:

What was measured:
Test in all cases: relative viability (nuclei count vs DMSO), 5 days (fraction); higher = more cells survive
[1] = compound: CCN1C(=O)C2=CC(=C(N=C2N(C1=O)C3CC3)N)C(=O)N + CS(=O)(=O)CCNCc1ccc(-c2ccc3ncnc(Nc4ccc(OCc5cccc(F)c5)c(Cl)c4)c3c2)o1 [Lapatinib] (partner 2 µM)
How it was run: (§1)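 Lung cancer cell lines were pin-tool dosed in 1536-well plates on the day after seeding, with either a lone drug or a fixed anchor-drug dose plus five library-drug doses (not always all listed) in √10 steps. Nuclei were counted on 4× images after 5 days. Relative viability is the ratio of treated-well to vehicle-well nuclei counts, with each value a median of duplicate plates.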

[2] = compound: CCN1C(=O)C2=CC(=C(N=C2N(C1=O)C3CC3)N)C(=O)N + Cc1nc(NC(=O)N2CCC[C@H]2C(N)=O)sc1-c1ccnc(C(C)(C)C(F)(F)F)c1 [Alpelisib] (partner 2 µM)
How it was run: as §1

[3] = compound: CCN1C(=O)C2=CC(=C(N=C2N(C1=O)C3CC3)N)C(=O)N + Cc1nc(Nc2ncc(C(=O)Nc3c(C)cccc3Cl)s2)cc(N2CCN(CCO)CC2)n1 [Dasatinib] (partner 0.075 µM)
How it was run: as §1

[4] = compound: CCN1C(=O)C2=CC(=C(N=C2N(C1=O)C3CC3)N)C(=O)N + N=C(N)NC(=N)NCCc1ccccc1 [Phenformin] (partner 250 µM)
How it was run: as §1

[5] = compound: CCN1C(=O)C2=CC(=C(N=C2N(C1=O)C3CC3)N)C(=O)N + NC(=O)Nc1cc(-c2cccc(F)c2)sc1C(=O)N[C@H]1CCCNC1 [AZD7762] (partner 0.2 µM)
How it was run: as §1

| Cell Line | relative viability ([1]; first compound 0.253 µM) | relative viability ([1]; first compound 0.8 µM) | relative viability ([1]; first compound 2.53 µM) | relative viability ([1]; first compound 8 µM) | relative viability ([2]; first compound 0.253 µM) | relative viability ([2]; first compound 0.8 µM) | relative viability ([2]; first compound 2.53 µM) | relative viability ([2]; first compound 8 µM) | relative viability ([3]; first compound 0.253 µM) | relative viability ([3]; first compound 0.8 µM) | relative viability ([3]; first compound 2.53 µM) | relative viability ([3]; first compound 8 µM) | relative viability ([4]; first compound 0.253 µM) | relative viability ([4]; first compound 0.8 µM) | relative viability ([4]; first compound 2.53 µM) | relative viability ([4]; first compound 8 µM) | relative viability ([5]; first compound 0.253 µM) | relative viability ([5]; first compound 0.8 µM) | relative viability ([5]; first compound 2.53 µM) | relative viability ([5]; first compound 8 µM) |
| --- | --- | --- | --- | --- | --- | --- | --- | --- | --- | --- | --- | --- | --- | --- | --- | --- | --- | --- | --- | --- |
| NCI-H2170 | 0.253 | 0.257 | 0.263 | 0.255 | 0.908 | 0.789 | 0.734 | 0.809 | 0.518 | 0.549 | 0.596 | 0.522 | 0.42 | 0.444 | 0.418 | 0.445 | 0.889 | 0.846 | 0.882 | 0.867 |
| NCI-H2347 | 0.94 | 1.01 | 0.985 | 0.937 | 0.963 | 0.987 | 1.02 | 0.89 | 0.294 | 0.307 | 0.161 | 0.323 | 0.373 | 0.424 | 0.547 | 0.418 | 0.769 | 0.785 | 0.695 | 0.817 |
| NCI-H2405 | 1.21 | 1.16 | 1.08 | 1.01 | 0.909 | 0.79 | 0.767 | 0.723 | 0.196 | 0.185 | 0.227 | 0.174 | 0.379 | 0.388 | 0.381 | 0.395 | 0.868 | – | 0.928 | 0.725 |
| NCI-H3122 | 1 | 1.05 | 0.951 | 1.03 | 0.748 | 0.755 | 0.717 | 0.819 | 0.772 | 0.803 | 0.81 | 0.788 | 0.401 | 0.393 | 0.394 | 0.358 | 0.922 | 0.967 | 1.02 | 0.983 |
| PC-3 [JPC-3] | 0.486 | 0.416 | 0.481 | 0.476 | 1.06 | 1 | 0.981 | 1.16 | 1.05 | 1.04 | 1.05 | 0.973 | 0.468 | 0.498 | 0.508 | 0.448 | 0.813 | – | 0.966 | 0.748 |
| PC-14 | 0.293 | 0.287 | 0.303 | 0.315 | 0.928 | 0.942 | 0.913 | 1.06 | 0.244 | 0.258 | 0.252 | 0.298 | 0.507 | 0.487 | 0.75 | 0.603 | 0.397 | 0.288 | 0.513 | 0.294 |
| RERF-LC-KJ | 0.897 | 0.882 | 0.909 | 0.86 | 0.792 | 0.791 | 0.763 | 0.838 | 0.76 | 0.82 | 0.676 | 0.795 | 0.424 | 0.411 | 0.392 | 0.413 | 1.02 | 0.826 | 1.6 | 1 |
